The values below come from patent US20240262833A1, “FUSED HETEROCYCLIC DERIVATIVES AS NEGATIVE ALLOSTERIC MODULATORS OF MGLU7 RECEPTOR” (Addex Pharma S.A., priority 2021, published 2024).

Structures are written as SMILES.

The target in this assay is T1, human metabotropic glutamate 7 receptor (hmGlu7) (Homo sapiens, UniProt Q14831).
T1 construct: expressed in transfected cells
T1 sequence (Q14831 35-922 isoform Q14831-2): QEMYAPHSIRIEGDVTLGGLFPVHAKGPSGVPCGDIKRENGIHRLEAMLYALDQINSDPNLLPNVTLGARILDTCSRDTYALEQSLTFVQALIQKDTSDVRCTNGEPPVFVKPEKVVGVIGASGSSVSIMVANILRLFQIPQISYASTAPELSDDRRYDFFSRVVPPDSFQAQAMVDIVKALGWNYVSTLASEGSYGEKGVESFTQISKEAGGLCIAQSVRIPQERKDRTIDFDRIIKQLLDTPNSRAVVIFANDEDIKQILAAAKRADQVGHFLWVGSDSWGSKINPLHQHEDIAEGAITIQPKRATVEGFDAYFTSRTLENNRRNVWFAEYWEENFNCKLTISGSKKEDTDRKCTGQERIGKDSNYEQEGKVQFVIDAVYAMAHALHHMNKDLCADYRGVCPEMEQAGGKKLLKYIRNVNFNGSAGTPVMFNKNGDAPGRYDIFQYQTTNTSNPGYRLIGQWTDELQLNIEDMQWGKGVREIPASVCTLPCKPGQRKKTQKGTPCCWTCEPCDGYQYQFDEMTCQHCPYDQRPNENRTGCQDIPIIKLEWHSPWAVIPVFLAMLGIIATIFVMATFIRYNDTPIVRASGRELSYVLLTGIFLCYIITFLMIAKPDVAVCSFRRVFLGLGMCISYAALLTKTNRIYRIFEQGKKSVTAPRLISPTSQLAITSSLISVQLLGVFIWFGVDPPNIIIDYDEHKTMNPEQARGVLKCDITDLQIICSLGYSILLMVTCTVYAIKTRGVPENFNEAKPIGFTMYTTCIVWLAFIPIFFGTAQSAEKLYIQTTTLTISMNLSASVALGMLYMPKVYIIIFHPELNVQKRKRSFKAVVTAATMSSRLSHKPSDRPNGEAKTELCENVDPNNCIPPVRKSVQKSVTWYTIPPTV
Nature of the assay: mGlu7 assay on HEK-expressing human mGlu7: fluorescent cell based Ca2+ mobilization assay (FLIPR), inhibition of EC80 L-AP4 response. Conditions: HEK-293 cells expressing hmGlu7; EC80 L-AP4 stimulation; mean of at least three independent experiments in duplicate; read-out: Ca2+ Flux (mean IC50). The source says: mGlu7 Assay on HEK-Expressing Human mGlu7
The cDNA encoding the human metabotropic glutamate 7 receptor (hmGlu7), (accession number NM_181874.2, NCBI Nucleotide database browser), was subcloned into an expression vector containing also the hygromycin resistance gene. In parallel, the cDNA encoding a G protein allowing redirection of the activation signal to intracellular calcium flux was subcloned into a different expression vector containing also the Puromycin resistance gene. Transfection of both these vectors into HEK293 cells with PolyFect reagent (Qiagen) according to supplier's protocol, and hygromycin and puromycin treatment allowed selection of antibiotic resistant cells which had integrated stably one or more copies of the plasmids. Positive cellular clones expressing hmGlu7 were identified in a functional assay measuring changes in calcium fluxes in response to glutamate and L-AP4 or known mGlu7 orthosteric antagonists.
HEK-293 cells expressing hmGlu7 were maintained in media containing DMEM, Fetal Bovine Serum (10%), Glutamax™ (2 mM), penicillin (100 units/mL), streptomycin (100 μg/mL), geneticin (100 μg/mL) and hygromycin-B (40 μg/mL) and puromycin (1 μg/mL) at 37° C. with 5% CO2 in a humidified atmosphere.
Fluorescent Cell Based-Ca^2+ Mobilization Assay Human mGlu7 HEK-293 cells were plated out 24 hours prior to a fluorescent cell-based calcium mobilization assay using FLIPR^384 assay (Molecular Device, Sunnyvale, CA, USA) in black-walled, clear-bottomed, poly-L-ornithine-coated 384-well plates at a density of 25,000 cells/well in a glutamine/glutamate free DMEM medium containing fetal bovine serum (10%), penicillin (100 units/mL), streptomycin (100 μg/mL) and doxycyline (1 μg/ml) at 37° C. with 5% CO2 in a humidified atmosphere.
On the day of the assay, the medium was aspirated and the cells were loaded with a 3 μM solution of Fluo4-AM (LuBioScience, Lucerne, Switzerland) in 0.03% pluronic acid. After 1 hour at 37° C./5% CO2, the non incorporated dye was removed by washing cell plate with the assay buffer. All assays were performed in a pH 7.4 buffered-solution containing 20 mM HEPES, 143 mM NaCl, 6 mM KCl, 1 mM MgSO4, 1 mM CaCl2, 0.125 mM sulfinpyrazone and 0.1% glucose.
After 10 s of basal fluorescence recording, various concentrations of the compounds of the invention were added to the cells. Changes in fluorescence levels were first monitored for 180 s in order to detect any agonist activity of the compounds. Then the cells were stimulated by an EC80 L-AP4 concentration for an additional 110 s in order to measure inhibiting activities of the compounds of the invention. EC80 L-AP4 concentration is the concentration giving 80% of the maximal glutamate response.
The concentration-response curves of L-AP4 or representative compounds of the present invention were generated using the Prism GraphPad software (Graph Pad Inc, San Diego, USA). The curves were fitted to a four-parameter logistic equation: […]
allowing determination of IC50 values.
The Table 3 below represents the mean IC50 obtained from at least three independent experiments of selected molecules performed in duplicate.
On the technique in general: Calcium assays in cells follow changes in intracellular calcium, usually with a dye or a luminescent sensor.
Turning to `COc1cccc(-n2c(C)c3cnn(-c4cccc(C(N)=O)c4)c(=O)c3c2C)c1` [1-73], the IC50 – broadly, the concentration that gives 50% inhibition – lay in the range of 100 to 1000 nM.

For `COc1cccc(-n2c(C)c3cnn(-c4cccc(OC)n4)c(=O)c3c2C)c1` [1-74], the IC50 was 1000 to 10000 nM. In the case of `COc1cccc(-n2c(C)c3cnn(-c4ccc(C(=O)N(C)C)cc4)c(=O)c3c2C)c1` [1-75] it was 100 to 1000 nM; in that of `CCOc1cccc(-n2c(C)c3cnn(-c4ccccn4)c(=O)c3c2C)c1` [1-77], 100 to 1000 nM. Consider `CCc1c2c(=O)n(-c3ccccn3)ncc2c(C)n1-c1cccc(OC)c1` [1-78], for which the IC50 fell in the range of 100 to 1000 nM. Under `COc1cc(-n2c(C)c3cnn(-c4ccccn4)c(=O)c3c2C)ccc1C` [1-79] stands 100 to 1000 nM.

Regarding `Cc1c2cnn(-c3ccccn3)c(=O)c2c(C)n1-c1ccc2cc[nH]c2c1` [1-80], the IC50 lay in the range of 1000 to 10000 nM. As to `COc1ccc(-n2ncc3c(C)n(-c4ccccn4)c(C)c3c2=O)cc1` [1-81], the IC50 lay within 1000 to 10000 nM. Consider `COc1ccc(-n2ncc3c(C)n(-c4cccc(OC)c4)c(C)c3c2=O)nc1` [1-83], for which the IC50 lay within 100 to 1000 nM. Take `Cc1cccc(-n2ncc3c(C)n(-c4cccc(N5CCOCC5)c4)c(C)c3c2=O)c1` [1-84]: the IC50 fell in the range of 1000 to 10000 nM.

Take `CCc1cccc(-n2c(C)c3cnn(-c4ccccn4)c(=O)c3c2C)c1` [1-85]: the IC50 is 100 to 1000 nM. For the compound `CCc1ccc(-n2c(C)c3cnn(-c4ccccn4)c(=O)c3c2C)cc1` [1-86], the IC50 fell in the range of 100 to 1000 nM. As to `Cc1c2cnn(-c3ccc(S(=O)(=O)N(C)C)cc3)c(=O)c2c(C)n1-c1ccccc1` [1-87], the IC50 lay in the range of 100 to 1000 nM. As for `CCc1c2c(=O)n(-c3ccccc3)ncc2c(C)n1-c1cccc(OC)c1` [1-89], the IC50 was in the range of 100 to 1000 nM. In the case of `Cc1c2cnn(-c3ccccn3)c(=O)c2c(C)n1-c1cccc(N2CCOCC2)c1` [1-90], the concentration for half-maximal inhibition (IC50) was 1000 to 10000 nM.

As to `COc1cccc(-n2c(C)c3cnn(-c4ccc(N5CCOCC5)nc4)c(=O)c3c2C)c1` [1-91], the IC50 was 100 to 1000 nM. On to `Cc1c2cnn(-c3ccc(CO)cc3)c(=O)c2c(C)n1-c1ccccc1` [1-92], for which the IC50 was in the range of 100 to 1000 nM. Turning to `Cc1c2cnn(-c3ccc(N4CCOCC4)cc3)c(=O)c2c(C)n1-c1ccccc1` [1-93], the IC50 was 100 to 1000 nM. As to `COc1cccc(-n2c(C)c3cnn(-c4cncc(OC)c4)c(=O)c3c2C)c1` [1-94], the IC50 is 100 to 1000 nM. For the compound `COc1cccc(-n2c(C)c3cnn(-c4cncnc4)c(=O)c3c2C)c1` [1-95], the IC50 was 100 to 1000 nM. In the case of `Cc1c2cnn(-c3ccccn3)c(=O)c2c(C)n1-c1ccc2ccn(C)c2c1` [1-96, 5,7-Dimethyl-6-(1-methyl-1H-indol-6-yl)-2-(pyridin-2-yl)-2,6-dihydro-1H-pyrrolo[3,4-d]pyridazin-1-one] it was 1000 to 10000 nM. For the compound `COc1ccc(-n2ncc3c(C)n(-c4cccc(OC)c4)c(C)c3c2=O)cc1` [1-97], the IC50 was below 100 nM.

For the compound `COc1ccc(-n2c(C)c3cnn(-c4ccc(CO)cc4)c(=O)c3c2C)cc1` [1-98], the IC50 lay within 100 to 1000 nM. Turning to `Cc1ccc(-n2c(C)c3cnn(-c4cccc(C)c4)c(=O)c3c2C)cc1` [1-99], the IC50 is 100 to 1000 nM.

Turning to `Cc1c2cnn(-c3ccccn3)c(=O)c2c(C)n1-c1cccc(N2CCC2)c1` [1-102, 6-(3-(Azetidin-1-yl)phenyl)-5,7-dimethyl-2-(pyridin-2-yl)-2,6-dihydro-1H-pyrrolo[3,4-d]pyridazin-1-one], the IC50 was below 100 nM. `COc1ccc(-n2c(C)c3cnn(-c4ccc(OC)cc4)c(=O)c3c2C)cc1` [1-103]: the IC50 fell in the range of 100 to 1000 nM. In the case of `CC(=O)NCc1ccc(-n2ncc3c(C)n(-c4ccccc4)c(C)c3c2=O)cc1` [1-104] it was 100 to 1000 nM. `COC(=O)c1ccc(-n2ncc3c(C)n(-c4cccc(OC)c4)c(C)c3c2=O)cc1OC` [1-105]: the IC50 was 100 to 1000 nM. As to `COc1ccc(-n2c(C)c3cnn(-c4ccc(CNC(C)=O)cc4)c(=O)c3c2C)cc1` [1-106], the IC50 lay in the range of 100 to 1000 nM. Consider `COCc1cccc(-n2c(C)c3cnn(-c4ccccn4)c(=O)c3c2C)c1` [1-107], for which the IC50 is 1000 to 10000 nM. Under `COCc1cccc(-n2c(C)c3cnn(-c4ccccc4)c(=O)c3c2C)c1` [1-108] stands 100 to 1000 nM; under `Cc1c2cnn(-c3ccccn3)c(=O)c2c(C)n1-c1cccc(N(C)C)c1` [1-110], 100 to 1000 nM. For the compound `Cc1c2cnn(-c3ccccn3)c(=O)c2c(C)n1-c1cccc(N2CCCC2=O)c1` [1-111], the IC50 lay in the range of 1000 to 10000 nM. With `COc1cccc(-n2c(C)c3cnn(-c4cccc(C(=O)N(C)C)c4)c(=O)c3c2C)c1` [1-112], the IC50 fell in the range of 100 to 1000 nM. Regarding `CNC(=O)c1ccc(-n2ncc3c(C)n(-c4cccc(OC)c4)c(C)c3c2=O)cc1` [1-113], the IC50 lay in the range of 100 to 1000 nM. In the case of `COc1cccc(-n2c(C)c3cnn(-c4cccc(CO)c4)c(=O)c3c2C)c1` [1-114], the IC50 lay within 100 to 1000 nM. In the case of `COc1cccc(-n2c(C)c3cnn(-c4cccc(CNC(C)=O)c4)c(=O)c3c2C)c1` [1-115], the IC50 was 100 to 1000 nM. For `COCc1cccc(-n2ncc3c(C)n(-c4cccc(OC)c4)c(C)c3c2=O)c1` [1-116], the IC50 is below 100 nM.

In the case of `COc1cccc(-n2c(C)c3cnn(-c4ccc(OC)c(OC)c4)c(=O)c3c2C)c1` [1-117], the IC50 was in the range of 100 to 1000 nM. As to `COc1cccc(-n2c(C)c3cnn(-c4ccc(CCCO)cc4)c(=O)c3c2C)c1` [1-118], the IC50 was below 100 nM. In the case of `COc1cccc(-n2c(C)c3cnn(-c4ccc(S(C)(=O)=O)cc4)c(=O)c3c2C)c1` [1-119], the IC50 was below 100 nM. Regarding `COc1cccc(-n2c(C)c3cnn(-c4ccc(S(N)(=O)=O)cc4)c(=O)c3c2C)c1` [1-120], the IC50 was below 100 nM.

Turning to `COc1cccc(-n2c(C)c3cnn(-c4ccnc(OC)c4)c(=O)c3c2C)c1` [1-121], the IC50 was below 100 nM.

Regarding `COc1cccc(-n2c(C)c3cnn(-c4ccc(C(F)(F)F)cn4)c(=O)c3c2C)c1` [1-122], the IC50 fell in the range of 100 to 1000 nM. With `COc1cccc(-n2c(C)c3cnn(-c4cccc(C#N)c4)c(=O)c3c2C)c1` [1-124], the IC50 fell in the range of 100 to 1000 nM.

Regarding `COc1ccc(-n2c(C)c3cnn(-c4cccc(C#N)c4)c(=O)c3c2C)cc1` [1-125], the IC50 lay in the range of 100 to 1000 nM. In the case of `COc1cccc(-n2c(C)c3cnn(-c4ccc(OC)nc4)c(=O)c3c2C)c1` [1-127] it was 100 to 1000 nM; in that of `COCc1ccc(-n2ncc3c(C)n(-c4cccc(OC)c4)c(C)c3c2=O)cc1` [1-128], 100 to 1000 nM; in that of `COc1cccc(-n2c(C)c3cnn(-c4cc[nH]c(=O)c4)c(=O)c3c2C)c1` [1-129], 100 to 1000 nM. Consider `COc1cccc(-n2c(C)c3cnn(-c4cccc(OC)c4)c(=O)c3c2C)c1` [1-130], for which the IC50 was below 100 nM.

Consider `CC(=O)c1ccc(-n2c(C)c3cnn(-c4ccccn4)c(=O)c3c2C)cc1` [1-132], for which the IC50 was 1000 to 10000 nM.

With `Cc1c2cnn(-c3ccccn3)c(=O)c2c(C)n1-c1cccc(-c2ccco2)c1` [1-136], the IC50 is below 100 nM. For `Cc1c2cnn(-c3ccccn3)c(=O)c2c(C)n1-c1cccc(C2CC2)c1` [1-137], the IC50 is 100 to 1000 nM.

Turning to `Cc1c2cnn(-c3ccccn3)c(=O)c2c(C)n1-c1cccc(OC(C)C)c1` [1-139], the IC50 is 100 to 1000 nM. As for `CCc1c2cnn(-c3ccccn3)c(=O)c2c(C)n1-c1cccc(OC)c1` [1-140], the IC50 was in the range of 1000 to 10000 nM. As for `Cc1c2cnn(-c3ccccc3)c(=O)c2c(C)n1-c1cccc(N2CCC2)c1` [1-141], the IC50 was below 100 nM.

`Cc1c2cnn(-c3ccccn3)c(=O)c2c(C)n1-c1cccc(-n2cccc2)c1` [1-142]: the IC50 was below 100 nM. Under `Cc1c2cnn(-c3ccccn3)c(=O)c2c(C)n1-c1cccc(N2CCCCC2)c1` [1-143] stands below 100 nM.

Regarding `CCOc1cccc(-n2ncc3c(C)n(-c4cccc(OC)c4)c(C)c3c2=O)c1` [1-144], the half-maximal inhibitory concentration (IC50) was below 100 nM. `COc1cccc(-n2c(C)c3cnn(-c4ccc(O)cc4)c(=O)c3c2C)c1` [1-145]: the IC50 was below 100 nM. Under `COc1cccc(-n2c(C)c3cnn(-c4cccc(CC#N)c4)c(=O)c3c2C)c1` [1-146] stands below 100 nM; under `COc1cccc(-n2c(C)c3cnn(-c4cccc(C(C)=O)c4)c(=O)c3c2C)c1` [1-147], 100 to 1000 nM.
